# PMC7891380 (Chemical Biology & Drug Design, 2020)
# Test system: multidrug‐resistant A. baumannii
# Assay: Peptide MIC, standard microbroth dilution assay
# Format: cell-based, Acinetobacter baumannii
# Conditions: result in words, based on MIC
sequence,measurement,value
LKIPGFVKDTLKKVAKGIFSAVAGAMTPS [Hymenochirin‐2B],potency against multidrug‐resistant A. baumannii,high potency
